Experimental data reported in the supplement of paper PMC9938120.

Key:
Experiment in all cases: drug sensitivity score (DSS3, normalised partial AUC of % inhibition dose-response) (DSS (score)); higher = more sensitive (stronger inhibition of viability); extreme values may be limits of the assay
[1] = system: FMOC02_3 (patient-derived low-grade serous ovarian cancer cells); settings: 72 h; library: FO5A; assay format: 2D, 384-well, CellTiter-Glo
Method in brief: (§1)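 Patient-derived ovarian cancer cells (early passage, under 10) were dispensed onto 384-well flat clear-bottom plates pre-plated with compounds at five concentrations covering a 10,000-fold range. Plates were incubated 72 h at 37 °C, 5% CO2, and viability was read with CellTiter-Glo. Data were processed in Breeze. The drug sensitivity score (DSS3) is a partial area under the percent-inhibition dose-response curve, divided by the log of the upper asymptote; higher means more sensitive.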

[2] = system: FMOC09 (patient-derived high-grade serous ovarian cancer cells); settings: 72 h; library: FO5A; assay format: 2D, 384-well, CellTiter-Glo
Method in brief: as §1

[3] = system: FMOC24 (patient-derived high-grade serous ovarian cancer cells); settings: 72 h; library: FO5A; assay format: 2D, 384-well, CellTiter-Glo
Method in brief: as §1

[4] = system: FMOC22 (patient-derived mucinous ovarian cancer cells); settings: 72 h; library: FO5A; assay format: 2D, 384-well, CellTiter-Glo
Method in brief: as §1

[5] = system: FMOC25_2 (patient-derived low-grade serous ovarian cancer cells); settings: 72 h; library: FO5A; assay format: 2D, 384-well, CellTiter-Glo
Method in brief: as §1

[6] = system: FMOC14 (patient-derived high-grade serous ovarian cancer cells); settings: 72 h; library: FO5A; assay format: 2D, 384-well, CellTiter-Glo
Method in brief: as §1

[7] = system: FMOC02_2 (patient-derived low-grade serous ovarian cancer cells); settings: 72 h; library: FO5A; assay format: 2D, 384-well, CellTiter-Glo
Method in brief: as §1

[8] = system: FMOC06 (patient-derived mucinous ovarian cancer cells); settings: 72 h; library: FO5A; assay format: 2D, 384-well, CellTiter-Glo
Method in brief: as §1

[9] = system: FMOC25_1 (patient-derived low-grade serous ovarian cancer cells); settings: 72 h; library: FO4B; assay format: 2D, 384-well, CellTiter-Glo
Method in brief: as §1

[10] = system: FMOC03 (patient-derived mucinous ovarian cancer cells); settings: 72 h; library: FO5A; assay format: 2D, 384-well, CellTiter-Glo
Method in brief: as §1

| SMILES | drug sensitivity score [1] | drug sensitivity score [2] | drug sensitivity score [3] | drug sensitivity score [4] | drug sensitivity score [5] | drug sensitivity score [6] | drug sensitivity score [7] | drug sensitivity score [8] | drug sensitivity score [9] | drug sensitivity score [10] |
| --- | --- | --- | --- | --- | --- | --- | --- | --- | --- | --- |
| COc1cc([C@@H]2c3cc4c(cc3[C@@H](O[C@@H]3O[C@@H]5CO[C@@H](C)O[C@H]5[C@H](O)[C@H]3O)[C@H]3COC(=O)[C@H]23)OCO4)cc(OC)c1O [Etoposide] | 2.7 | 5.6 | 1.9 | 6.1 | 2.9 | 1.7 | 1.4 | 3.5 | 2.8 | 1.7 |
| CO[C@H]1C[C@@H]2CC[C@@H](C)[C@@](O)(O2)C(=O)C(=O)N2CCCC[C@H]2C(=O)O[C@H]([C@H](C)C[C@@H]2CC[C@@H](OCCO)[C@H](OC)C2)CC(=O)[C@H](C)/C=C(\C)[C@@H](O)[C@@H](OC)C(=O)[C@H](C)C[C@H](C)/C=C/C=C/C=C/1C [Everolimus] | 10.2 | 3.9 | 7.5 | 6.7 | 6.7 | 1.7 | 10 | 5.8 | 9.2 | 2.8 |
| CCn1c(=O)c(-c2ccc(Cl)cc2Cl)cc2cnc(Nc3ccc(N4CCNCC4)c(F)c3)nc21 [FRAX486] | 14.7 | 3.7 | 9.45 | 0.1 | 11.9 | 0.2 | 12.2 | 1.7 | 3.2 | 2.4 |
| Cc1cnc(Nc2ccc(OCCN3CCCC3)cc2)nc1Nc1cccc(S(=O)(=O)NC(C)(C)C)c1 [Fedratinib] | 12.2 | 5.1 | 6.9 | 2.3 | 11.3 | 1.7 | 10.4 | 2.8 | 5.7 | 3.2 |
| CON(C)C(=O)N1N=C(c2cc(F)ccc2F)S[C@@]1(CCCN)c1ccccc1 [Filanesib] | 12.7 | 7.5 | 0 | 6.3 | 12 | 0 | 6.8 | 0 | 6.1 | 4.4 |
| CCCCCCCCc1ccc(CCC(N)(CO)CO)cc1 [Fingolimod] | 6.1 | 6 | 10.8 | 5.3 | 5.7 | 7.3 | 7.7 | 7 | 6.2 | 5.1 |
| O=c1[nH]c(=O)n([C@H]2C[C@H](O)[C@@H](CO)O2)cc1F [Floxuridine] | 2.3 | 2.2 | 0 | 9.3 | 3.8 | 0.8 | 2.6 | 0.8 | 0.5 | 4.1 |
| O=C(NOCCO)c1ccc2cncn2c1Nc1ccc(I)cc1F [GDC-0623] | 5.3 | 4 | 1.35 | 7.2 | 11.2 | 0.1 | 7.3 | 6.1 | 9.6 | 1.3 |
| CCOC(=O)CCNc1cc(N2CCc3ccccc3CC2)nc(-c2ccccn2)n1 [GSK-J4] | 3.2 | 0 | 3.9 | 4.3 | 7.5 | 1.3 | 0 | 4 | 6.7 | 3.2 |
| Cc1cc(Nc2cc(CN3CCOCC3)c3nc(C)c(Cc4ccc(Cl)cc4F)n3n2)n[nH]1 [Gandotinib] | 10.1 | 5.1 | 7.6 | 1.8 | 18.8 | 6.1 | 16.3 | 8.9 | 3.7 | 4.7 |
| CC(C)c1cc(-c2n[nH]c(=O)n2-c2ccc3c(ccn3C)c2)c(O)cc1O [Ganetespib] | 19.7 | 12.3 | 8.9 | 14.3 | 17.5 | 10.9 | 16.2 | 3.3 | 11.6 | 11.3 |
| CN(C)C1CCN(C(=O)c2ccc(NC(=O)Nc3ccc(-c4nc(N5CCOCC5)nc(N5CCOCC5)n4)cc3)cc2)CC1 [Gedatolisib] | 13.3 | 11.3 | 9.05 | 10.7 | 19.9 | 10.2 | 8.2 | 12.4 | 16.3 | 8.2 |
| COc1cc2ncnc(Nc3ccc(F)c(Cl)c3)c2cc1OCCCN1CCOCC1 [Gefitinib] | 15.1 | 10.9 | 5.8 | 1.5 | 16.5 | 6.6 | 17.3 | 5.4 | 9.8 | 16.2 |
| Nc1ccn([C@@H]2O[C@H](CO)[C@@H](O)C2(F)F)c(=O)n1 [Gemcitabine] | 17.3 | 10.5 | 6 | 12.7 | 14.6 | 0 | 16.3 | 5.4 | 7.6 | 2.9 |
| CCN(CC)Cc1ccc2cc(COC(=O)Nc3ccc(C(=O)NO)cc3)ccc2c1 [Givinostat] | 5.9 | 1.5 | 5.45 | 4.7 | 4 | 4.4 | 7.1 | 5.2 | 5.2 | 6.1 |
| COc1cc2c(cc1-c1c(C)noc1C)ncc1[nH]c(=O)n([C@H](C)c3ccccn3)c12 [I-BET151] | 11.3 | 4.5 | 7.05 | 5.1 | 7.8 | 1.3 | 10.1 | 4.7 | 4.5 | 6.6 |
| C=CC(=O)N1CCC[C@@H](n2nc(-c3ccc(Oc4ccccc4)cc3)c3c(N)ncnc32)C1 [Ibrutinib] | 7.3 | 6 | 0.5 | 0 | 6.5 | 2.7 | 10.2 | 0.3 | 5.6 | 8.8 |
